Assays:
MOLT-4 [1] = experiment: Cell viability (CellTiter Glo), library of cancer drugs, individual or sample compression with randomized (alphabetical) pools, MOLT-4; format: cell-based; details: for DRS: MOLT-4, None (measured individually); for DRS from deconvolution: MOLT-4, Samples, 7 Pick 3 randomized (alphabetical) sample pools
Procedure, shortened: (§1)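 Cells cultured with each drug individually at 1 nM–10 μM; viability by ATP luminescence (CellTiter Glo) to build dose-response curves and DRS. Samples read singly or pooled alphabetically (each drug in 3 of 7 pools), with pooled DRS recovered by additivity-based SUM deconvolution.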

REH [2] = experiment: Cell viability (CellTiter Glo), compressed perturbation pools with informed pool design, MAX-based deconvolution, REH; details: for DRS / DRS from MAX-based deconvolution / DRS, REH, MAX: REH; for DRS: None (measured individually), informed pool design table; for DRS from MAX-based deconvolution: Samples, 7 Pick 3 informed perturbation pools; for DRS, REH, MAX: compressed perturbation pools, informed pool design, MAX-based deconvolution;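 for DRS from MAX-based deconvolution: higher DRS means a larger drug effect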
Procedure, shortened: (§2)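 Per-drug DRS recovered by MAX deconvolution, which assumes the strongest pool member masks the rest; after ranking, each drug in turn takes the DRS of the lowest-signal pool containing it, and leftovers score zero. Pools built from drug class and known toxic combinations; dose-response spans 1 nM to 10 μM, read by ATP-based luminescence.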

MOLT-4 [3] = experiment: Cell viability (CellTiter Glo), compressed perturbation pools with informed pool design, MAX-based deconvolution, MOLT-4; details: for DRS: MOLT-4, None (measured individually), informed pool design table; for DRS from MAX-based deconvolution: MOLT-4, Samples, 7 Pick 3 informed perturbation pools; for DRS, MOLT-4, MAX: compressed perturbation pools, informed pool design, MAX-based deconvolution;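 for DRS from MAX-based deconvolution: higher DRS means a larger drug effect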
Procedure, shortened: as §2

REH [4] = experiment: Cell viability (CellTiter Glo), library of cancer drugs, individual or sample compression with randomized (alphabetical) pools, REH; format: cell-based; details: REH; for DRS: None (measured individually); for DRS from deconvolution: Samples, 7 Pick 3 randomized (alphabetical) sample pools
Procedure, shortened: as §1

REH [5] = experiment: Cell viability (CellTiter Glo), compressed perturbation pools with informed pool design, SUM-based deconvolution, REH; parameters: scale not given here
Method: (§3) Total cell viability was measured for each sample using an ATP-based luminescence assay (i.e., CellTiter Glo). Each cancer drug was then screened at multiple concentrations ranging from one nM to ten μM in order to generate a dose-response curve and calculate a DRS for each cancer cell line.
(§4) Each cancer drug was cultured with target cells individually. At the end of the screen, samples were either analyzed individually or compressed into pools for analysis. The library was compressed alphabetically into ten cohorts, each of which contained seven cancer drugs present in three out of the seven pools, as shown in Table VII. Said another way, the screening platform 210 generated a “7 pick 3” compressed library by assigning the cancer drugs among different pools. […] The library was also compressed into ten cohorts with pools designed based on information known about each cancer drug, as shown in Table VIII. After cell viability measurement and DRS calculation, the DRS of each cancer drug in the samples generated based on the pools were deconvoluted and compared to the DRS for each cancer drug measured individually.
(§5) In parallel to the exemplary sample compression screen covered in Table VII, perturbations were compressed into pools and then screened. The pools were designed using drug class as a feature with two compression rules (or simply “rules”). The first rule required that drugs from the same class be separated into different cohorts (i.e., mutually exclusive groups of pools). The second rule separated PI3K pathway inhibitors from MAPK pathway inhibitors, as inhibiting these pathways in parallel is known to be synergistic but has not been clinically effective due to dose-limiting toxicities. A benefit of compressing perturbations is the ability to measure additive, antagonistic, and synergistic effects between drugs in the same pool. However, these effects can negatively impact deconvolution of individual drug effects. Therefore, combinations of drugs for which evidence of clinical toxicity exists can be assigned to different pools in accordance with an informed pooling operation. As new preclinical or clinical evidence of toxic combinations becomes available, the rules implemented by the screening platform 210—and more specifically, its algorithm for compressing members of a library—can be updated accordingly.
(§6) In SUM-based deconvolution, an assumption of additivity is used to quantify the individual effects of each perturbation on each target. Additivity implies that each perturbation effect on each target is positively contributing to the overall effect measured for that pool. This is an accurate assumption for certain experiments, such as when targets or samples are compressed. When targets are pooled—or when samples containing different targets are pooled—the effect of each perturbation on each individual target is diluted. In other words, each perturbation has an isolated effect on a target in culture, and the sum total of the isolated effects are measured when pooled. Therefore, SUM-based deconvolution breaks down the sum total measured for a pool and assigns estimated fractional effects to each compressed perturbation or target in the pool. The screening platform 210 used SUM-based deconvolution for all target and sample compression experiments described above.
(§7) As mentioned above, SUM-based deconvolution uses the overlapping pool design to identify relative relationships and ranges for the individual effects of each perturbation. When the overlapping pool design is not sufficient to solve for the polynomials representing perturbation effects, an anchor perturbation can be identified by the screening platform 210 based on rank order and assigned an effect size of zero. The anchor perturbation may be the lowest ranked perturbation in the rank order. This then enables the screening platform 210 to solve for the polynomials for the remaining perturbations.

MOLT-4 [6] = experiment: Cell viability (CellTiter Glo), compressed perturbation pools with informed pool design, SUM-based deconvolution, MOLT-4; parameters: scale not given here
Method: as §3, §4, §5, §6, §7

Compound | DRS (MOLT-4 [1]) | DRS from deconvolution (MOLT-4 [1]) | effect on REH relative to MOLT cell line (REH [2]; REH relative to MOLT) | DRS (REH [2]) | DRS from MAX-based deconvolution (REH [2]) | DRS, REH, MAX (REH [2]) | DRS (MOLT-4 [3]) | DRS from MAX-based deconvolution (MOLT-4 [3]) | DRS, MOLT-4, MAX (MOLT-4 [3]) | DRS (REH [4]) | DRS from deconvolution (REH [4]) | DRS, REH, SUM (REH [5]) | DRS, MOLT-4, SUM (MOLT-4 [6]) | effect size relative to everolimus (MOLT-4 [3]; MOLT, Cohort 10)
CO[C@H]1C[C@@H]2CC[C@@H](C)[C@@](O)(O2)C(=O)C(=O)N2CCCC[C@H]2C(=O)O[C@H]([C@H](C)C[C@@H]2CC[C@@H](OCCO)[C@H](OC)C2)CC(=O)[C@H](C)/C=C(\C)[C@@H](O)[C@@H](OC)C(=O)[C@H](C)C[C@H](C)/C=C/C=C/C=C/1C [Everolimus] | 2.19 | 2.35 | much larger effects on the REH cell line | 0.23 | 0.00 | 9.02 | 0.23 | 0.00 | 2.51 | 7.39 | 7.70 | 9.02 | 1.42 | 
CC[C@H](Nc1ncnc2[nH]cnc12)c1nc2cccc(F)c2c(=O)n1-c1ccccc1 [Idelalisib] | 0.80 | 0.69 |  | 0.30 | 0.74 | 0.00 | 0.00 | 0.00 | 0.00 | 0.91 | 0.85 | 0.00 | 0.54 | 
Cc1ccc(NC(=O)c2ccc(CN3CCN(C)CC3)cc2)cc1Nc1nccc(-c2cccnc2)n1 [Imatinib] | 0.88 | 0.89 |  | 15.29 | 18.48 | 0.00 | 13.99 | 15.14 | 0.00 | 1.78 | 1.90 | 1.81 | 1.34 | 
COc1cc2nccc(Oc3ccc(NC(=O)NC4CC4)c(Cl)c3)c2cc1C(N)=O [Lenvatinib] | 0.74 | 0.77 |  | 0.00 | 0.00 | 0.00 | 0.00 | 0.00 | 0.00 | 0.14 | 0.00 | 0.00 | 0.89 | 
CCOc1cc2ncc(C#N)c(Nc3ccc(OCc4ccccn4)c(Cl)c3)c2cc1NC(=O)/C=C/CN(C)C [Neratinib] | 4.08 | 4.32 |  | 29.39 | 34.11 | 3.06 | 29.89 | 35.00 | 4.35 | 2.58 | 2.32 | 0.37 | 2.74 | larger effect size than everolimus
NC(=O)c1cccc2cn(-c3ccc([C@@H]4CCCNC4)cc3)nc12 [Niraparib] | 4.30 | 4.85 |  | 4.42 | 5.23 | 0.00 | 6.12 | 8.06 | 0.00 | 0.70 | 0.59 | 0.00 | 0.00 | 
Cc1ccc(Nc2nccc(N(C)c3ccc4c(C)n(C)nc4c3)n2)cc1S(N)(=O)=O [Pazopanib] | 0.68 | 0.00 |  | 3.93 | 4.01 | 7.06 | 3.50 | 0.00 | 5.39 | 5.88 | 5.90 | 8.02 | 2.41 | 

Reference: US20260378560A1, “APPROACHES TO DESIGNING AND PERFORMING COMPRESSED BIOLOGICAL EXPERIMENTS AND SYSTEMS FOR IMPLEMENTING THE SAME” (EXVIVO LABS INC., priority 2023, published 2026)
